Results from article PMC11404765 (Journal of Clinical Oncology, 2024).
Marks after values point to notes of the source that are not given here.

Assays:
PK profiles in serum = type: in vivo, human
[1] = system: BTC harboring FGFR2 fusions or rearrangements; conditions: phase II trials; cited from earlier work
IDH1-mutant BTC = conditions: phase III; cited from earlier work
advanced BTC = conditions: phase III, added to chemotherapy, first-line advanced BTC; cited from earlier work

CC[C@@]1(O)C(=O)OCc2c1cc1n(c2=O)Cc2c-1nc1cc(F)c(C)c3c1c2[C@@H](NC(=O)CO)CC3 [MAAA-1181a]
t1/2, mean (SD) (PK profiles in serum; n = 6): 4.76 (1.02) days | Tmax, median (range) (PK profiles in serum; n = 7): 3.88 (1.65-4.07) hours | Cmax, mean (SD) (PK profiles in serum; payload after T-DXd 5.4 mg/kg, n = 7): 11.5 (4.65)^a ng/mL

CCN1CCN(c2ccc(Nc3cc(N(C)C(=O)Nc4c(Cl)c(OC)cc(OC)c4Cl)ncn3)cc2)CC1 [infigratinib]
ORR [1]: 18.8%

N#Cc1ccnc(N2C(=O)CC[C@H]2C(=O)N(c2cncc(F)c2)[C@H](C(=O)NC2CC(F)(F)C2)c2ccccc2Cl)c1 [ivosidenib]
PFS compared with placebo (IDH1-mutant BTC): improved

CCN1C(=O)N(c2c(F)c(OC)cc(OC)c2F)Cc2cnc3[nH]c(CN4CCOCC4)cc3c21 [pemigatinib]
ORR [1]: 35.5%

durvalumab
Overall survival (OS) (advanced BTC): improved overall survival

pembrolizumab
Overall survival (OS) (advanced BTC): improved overall survival
